Data taken from ChEMBL document CHEMBL1201862, “PubChem BioAssay data set” (2004).
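Test compounds were applied to cells in 96-well plates for 48 hours at 5 doses. Abbreviation: GI50, concentration required for 50% inhibition of growth.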 Active and inactive are the calls of the source. No stated cut-off is given here; in the data, active = GI50 up to about 1.1 µM and inactive = higher.

Assays:
Assay in all cases: DTP human tumour cell line panel, 48 h
786-0 = system: 786-0
DMS-273 = system: DMS-273
EKVX = system: EKVX
HCC 2998 = system: HCC 2998
HCT-116 = system: HCT-116
HOP-18 = system: HOP-18
HOP-92 = system: HOP-92
HT-29 = system: HT-29
KM-20L2 = system: KM-20L2
M14 = system: M14
NCI-H226 = system: NCI-H226
NCI-H460 = system: NCI-H460
OVCAR-5 = system: OVCAR-5
SF-295 = system: SF-295
SK-OV-3 = system: SK-OV-3
SN12C = system: SN12C
UACC-62 = system: UACC-62
UO-31 = system: UO-31

Measured: GI50

CCN1CCC(O)(c2ccc(C)cc2)C(C(=O)c2ccc(C)cc2)C1 (centres undefined)
inactive: 786-0 13.5 µM | DMS-273 19.8 µM | EKVX 17.3 µM | HCC 2998 52.4 µM | HCT-116 16.7 µM | HOP-18 22.1 µM | HOP-92 19.7 µM | HT-29 19.8 µM | KM-20L2 13 µM | M14 36.7 µM | NCI-H226 > 100 µM | NCI-H460 > 52.6 µM | OVCAR-5 20.2 µM | SF-295 > 100 µM | SK-OV-3 > 100 µM | SN12C 14.9 µM | UACC-62 > 42.6 µM | UO-31 28.2 µM

O=[N+]([O-])c1ccc(C2=NN(c3ccccc3)C[N+](c3ccc(Br)cc3)=N2)cc1
inactive: 786-0 > 100 µM | DMS-273 > 100 µM | EKVX > 100 µM | HCC 2998 41.6 µM | HCT-116 89.5 µM | HOP-18 > 100 µM | HOP-92 78.7 µM | HT-29 > 100 µM | KM-20L2 > 100 µM | M14 > 100 µM | NCI-H226 > 100 µM | NCI-H460 > 100 µM | OVCAR-5 > 100 µM | SF-295 75.5 µM | SK-OV-3 > 100 µM | SN12C > 100 µM | UACC-62 > 100 µM | UO-31 > 100 µM

Nc1ccc(C(=O)NN2C(=O)C(Cl)C2c2cc(Br)cc(Br)c2O)cc1 (centres undefined)
inactive: 786-0 8.3 µM | DMS-273 6.4 µM | EKVX 4.62 µM | HCC 2998 16.8 µM | HCT-116 6.79 µM | HOP-18 3.56 µM | HOP-92 24.2 µM | HT-29 34.9 µM | KM-20L2 33.3 µM | M14 12.8 µM | NCI-H226 5.82 µM | NCI-H460 3.4 µM | OVCAR-5 40.2 µM | SF-295 10.3 µM | SK-OV-3 11.2 µM | UACC-62 4.44 µM | UO-31 3.34 µM

Cn1c(NC(=O)NC23CC4CC(CC(C4)C2)C3)nc2ccccc21
inactive: 786-0 17.1 µM | DMS-273 26.5 µM | EKVX 83.8 µM | HCC 2998 > 100 µM | HCT-116 15.3 µM | HOP-18 19.2 µM | HOP-92 25.5 µM | HT-29 > 100 µM | KM-20L2 > 100 µM | M14 47.8 µM | NCI-H226 93.5 µM | NCI-H460 38.4 µM | OVCAR-5 > 100 µM | SF-295 12.6 µM | SK-OV-3 17.4 µM | SN12C 68.5 µM | UACC-62 40.1 µM | UO-31 > 100 µM

O=C(c1ccccc1)C(C(=O)c1ccccc1)C1(O)C(=O)c2ccccc2C1=O
inactive: 786-0 26.9 µM | DMS-273 20.6 µM | EKVX 32.5 µM | HCC 2998 39.4 µM | HCT-116 > 10 µM | HOP-18 68.4 µM | HOP-92 25.8 µM | HT-29 39.7 µM | KM-20L2 34.9 µM | M14 26.9 µM | NCI-H226 37.1 µM | OVCAR-5 60.3 µM | SF-295 28.2 µM | SK-OV-3 48.8 µM | SN12C 27.8 µM | UACC-62 32.6 µM | UO-31 36.1 µM

NC1=C(NC(=O)Cc2ccccc2F)C(=O)c2ccccc2C1=O
inactive: 786-0 27.1 µM | DMS-273 97.7 µM | EKVX 59.3 µM | HCC 2998 > 100 µM | HCT-116 44 µM | HOP-18 > 100 µM | HOP-92 22.3 µM | HT-29 46.7 µM | KM-20L2 40.7 µM | M14 > 100 µM | NCI-H226 > 100 µM | NCI-H460 47.2 µM | SF-295 32.6 µM | SN12C 90.6 µM | UACC-62 37.8 µM | UO-31 92.7 µM

CC(C)(C)C1CC[C@H]2c3c([nH]c4ccccc34)[C@H]3C(=O)N(c4ccc(F)cc4)C(=O)[C@H]3[C@H]2C1 (some centres undefined)
inactive: 786-0 11.3 µM | DMS-273 17.8 µM | EKVX 16.3 µM | HCC 2998 13.6 µM | HCT-116 11.6 µM | HOP-18 17.1 µM | HOP-92 28.1 µM | KM-20L2 17.5 µM | M14 18.5 µM | NCI-H226 19.1 µM | NCI-H460 13.6 µM | OVCAR-5 28.9 µM | SF-295 14.8 µM | SK-OV-3 17.8 µM | SN12C 11.1 µM | UACC-62 15.5 µM | UO-31 15.8 µM

O=C(O/N=C1/CCCC/C1=C\c1ccccc1)c1ccc(Cl)c(Cl)c1
inactive: 786-0 30.2 µM | DMS-273 23.9 µM | EKVX 38.3 µM | HCC 2998 > 100 µM | HCT-116 13.6 µM | HOP-18 > 100 µM | HOP-92 26.8 µM | HT-29 22.4 µM | KM-20L2 65.3 µM | M14 > 100 µM | NCI-H226 45.9 µM | NCI-H460 40.3 µM | OVCAR-5 69.2 µM | SF-295 31.8 µM | SK-OV-3 > 100 µM | SN12C 49.8 µM | UACC-62 17.1 µM | UO-31 17.9 µM
